# Columns and labels:
# plasma sPLA2 = conditions: LPS 4 mg/kg s.c.; peptide 0.4 mg/kg s.c. 60 min later
# human plasma PLA2 = conditions: 25 nM peptide
# PLA2 = conditions: cited from earlier work
substance,measurement,setting,value
CAHAQAESC,survival of neural cells,neural cells,promotes survival of neural cells
CHEASQC [CHEC-7],LPS-induced increases in sPLA2 activity in plasma,plasma sPLA2,effective in attenuating
same,effect on LPS-induced plasma sPLA2 compared with CHEC-9,plasma sPLA2,greater and more sustained effect
same,dependence of inhibition on substrate concentration,human plasma PLA2,less effective at the lowest substrate concentrations
same,ex vivo inhibition of human plasma PLA2,"human plasma PLA2; 25% pooled ALS plasma, PED6 substrate",inhibition
PMSF,PLA2 activity,PLA2,inhibits PLA2 activity
